Source: patent US20040132817A1, “Use of an histone deacetylase inhibitor for the treatment of diseases associated with an hpv infection” (priority 2001, published 2004)

Legend:
Assay type in all cases: cell-based, human
"1637" cells = assay: Flow-cytometric cell cycle analysis of "1637" keratinocytes (HPV-16 E6/E7 under HPV16 URR); conditions: 6 mM sodium butyrate, 16 hours
Excerpt: (§1) (B) Flow-cytometric analysis. Quantification of the proportion of cells in the cell cycle phases G1, S and G2/M (standard deviations are the mean of three independent experiments).
(§2) HPV18-positive cervical Carcinoma cells (HeLa) were maintained in Dulbecco's modified Eagle's medium (DMEM), supplemented with 10% fetal calf serum (Gibco BRL, Rockville, USA), 1% penicillin and streptomycin (Sigma, Deisenhofen, Deutschland). Primary human keratinocytes, immortalized by E6-, E7- and E6/E7-open reading frames carrying amphotroptic retroviruses were cultivated in “Keratinocyte Medium Kit” (Sigma). Human foreskin keratinocytes transformed with HPV-16 E6/E7 either under the control of a human β-actin promoter (,1321″) or under the control of the authentic upstream regulatory region HPV (,1637″) were a kind gift of Dr. R. Schlegel (Georgetown University, Washington, USA) (Münger et al., J. Virol. 63 (1989), 4414-4423; Villa & Schlegel, Virology 181 (1991), 374-377). […]
(§3) Cells were harvested by trypsinisation, washed twice with phosphate-buffered saline (PBS) and fixed overnight in 70% ethanol. […] Cell cycle analysis and quantification of flow cytometric data was performed according to Dean and Jett, J. Cell. […]

pRb = assay: Western blot of pRb in HPV16 E6-, E7-, E6/E7-immortalized keratinocytes; conditions: 6 mM sodium butyrate, 16 hours
Procedure: Western blot analysis of cellular extracts obtained from E6-, E7-, and E6/E7-Immortalized cells which were separated in 8% (pRb) and 12% SDS-PAGE gels. After electrotransfer, the filters were incubated with pRb, E2F-1, cyclin E and actin antibodies. […] Due to quantitative differences of pRb and cyclin E levels in E7- and E6/E7-positive cells, the filters were exposed for different times.
HPV18-positive cervical Carcinoma cells (HeLa) were maintained in Dulbecco's modified Eagle's medium (DMEM), supplemented with 10% fetal calf serum (Gibco BRL, Rockville, USA), 1% penicillin and streptomycin (Sigma, Deisenhofen, Deutschland). Primary human keratinocytes, immortalized by E6-, E7- and E6/E7-open reading frames carrying amphotroptic retroviruses were cultivated in “Keratinocyte Medium Kit” (Sigma). Human foreskin keratinocytes transformed with HPV-16 E6/E7 either under the control of a human β-actin promoter (,1321″) or under the control of the authentic upstream regulatory region HPV (,1637″) were a kind gift of Dr. R. Schlegel (Georgetown University, Washington, USA) (Münger et al., J. Virol. 63 (1989), 4414-4423; Villa & Schlegel, Virology 181 (1991), 374-377). Cells were grown in 3 parts of keratinocyte-serum free medium (K-SFM, GIBCO, BRL) and 1 part of DMEM containing 10% fetal calf serum (GIBCO, BRL) and 0.75% gentamycin, 0.25% penicillin/streptomycin, respectively
(§4) Cellular extracts were separated in 8-12% SDS PAGE gels and electrotransferred as described elsewhere (Finzer et al., Oncogene 19 (2000), 3235-3244; Soto et al., Oncogene 18 (1999), 3187-3198). The following antibodies were used: cyclin E (HE 12), cyclin D 1 (HD 11), cdk2 (M2), (D-12; Santa Cruz Biotechnology, Inc., Santa Cruz, USA), cdk4 (C-22), cdk6 (C-21), p27^KIP1 (C-19), (K25020), p45^SKP2 (N-19), HPV18-E7 (N-19) and E2F-1 (KH95) (Santa Cruz Biotechnology, Inc. Santa Cruz, USA), p21^CIP1 (C24420; Transduction Laboratories, Lexington, USA), pRB (NCL-RB; Novocastra, UK), p16^INK4 (15126E, Pharmingen, San Diego, USA) and HPV 16 E7 (ZYMED Lab. Inc., San Francisco, USA). […]

"1321" cells = assay: Flow-cytometric cell cycle analysis of "1321" keratinocytes (HPV-16 E6/E7 under β-actin promoter); conditions: 6 mM sodium butyrate, 16 hours
Excerpt: as §1, §2, §3

p16^INK4 = assay: Western blot of p16^INK4 in HeLa cells; conditions: 6 mM sodium butyrate, 16 hours
Procedure: (A) Westem blot analysis. 50 μg of cellular protein were loaded on SDS-PAGE minigels. After electrotransfer, the filters were incubated with p21^CIP1, p27^KIP1, p16^INK4 and p45^SKP2. Equal protein loading was confirmed by a monoclonal actin antibody.
Cellular extracts were separated in 8-12% SDS PAGE gels and electrotransferred as described elsewhere (Finzer et al., Oncogene 19 (2000), 3235-3244; Soto et al., Oncogene 18 (1999), 3187-3198). The following antibodies were used: cyclin E (HE 12), cyclin D 1 (HD 11), cdk2 (M2), (D-12; Santa Cruz Biotechnology, Inc., Santa Cruz, USA), cdk4 (C-22), cdk6 (C-21), p27^KIP1 (C-19), (K25020), p45^SKP2 (N-19), HPV18-E7 (N-19) and E2F-1 (KH95) (Santa Cruz Biotechnology, Inc. Santa Cruz, USA), p21^CIP1 (C24420; Transduction Laboratories, Lexington, USA), pRB (NCL-RB; Novocastra, UK), p16^INK4 (15126E, Pharmingen, San Diego, USA) and HPV 16 E7 (ZYMED Lab. Inc., San Francisco, USA). Cyclin A was kindly provided by M. Pagano (Pagano et al., EMBO J. 11 (1992), 961-971). Equal protein transfer and loading was routinely checked by incubating the filters with a monoclonal actin antibody (ICN Biomedicals, Ohio, USA).

cdk2 [1] = assay: Histone H1 kinase assay of cdk2 complexes from "1321" and "1637" keratinocytes; conditions: "1321" and "1637" cells, 6 mM sodium butyrate, 16 hours
Procedure: (A) Upper panel: cdk2 complexes were immunoprecipitated and assayed for their activity using histone H1 as substrate. Lower panels: Western blot analysis of the cdk 2 complexes. Filters were incubated with specific antibodies against p21^CIP1 (=p21) and p27^KIP1 (=p27). Equal precipitation and loading was controlled by incubation with a cdk 2 antibody.
For cell fractionation, cell monolayers were washed twice with PBS and harvested by trypsinisation. Cell extract preparation and cdk2 activity assays were exactly done as described by Blomberg and Hoffmann, Mol. Cell. Biol. 19 (1999), 6183-6194. In addition, cdk2 was immunoprecipitated and analyzed by immunoblotting. Beads used for cdk2 kinase assay were washed 3 times with lysis buffer (Blomberg and Hoffmann, 1999), incubated with Laemmli sample buffer and boiled for 5 min. Supernatant was analyzed by SDS-PAGE gels. Immunoblotting was carried out with the following antibodies: p21^CIP1 (C24420) and p27^KIP1 (K25020; Transduction Laboratories) or HPV18-E7 (N-19; Santa Cruz, Inc.). Cdk2 specific antibodies or preimmune serum were kindly provided by I. Hoffmann (DKFZ, Heidelberg).

cdk2 [2] = assay: Western blot of cdk2 in HeLa cells
Procedure: 50 μg of protein were separated on 12% SDS-PAGE minigels. After electrotransfer, the filters were incubated with antibodies against cyclin D1, cyclin E, cyclin A or cdk2, cdk4 or cdk6 specific antibodies. Equal protein loading was confirmed by reincubating the filters with a monoclonal actin antibody.
(A) Western blot analysis. 75 μg of total cellular protein was loaded on a 12% SDS-PAGE gel. After electrotransfer, the filters were incubated with antibodies directed against HPV18 E7, p21^CIP1 (=p21), p27^KIP1 (=p27) and cdk2.
as §4, with “USA). Cyclin A was kindly provided by M. Pagano (Pagano et al., EMBO J. 11 (1992), 961-971).” for “USA).”

Question: Which results are given for `CCCC(=O)[O-].[Na+]` [sodium butyrate]?
Answer: proportion of cells within S-phase ("1637" cells; "1621" as printed, untreated 24.9%): 4.7%; cells in G1 ("1637" cells; "1621" keratinocytes as printed, untreated 65.3%): 81.2%; pRb state in E6-containing keratinocytes (pRb; HPV16 E6-immortalized keratinocytes): hypophosphorylated; pRb level in E6/E7-immortalized keratinocytes (pRb; HPV16 E6/E7-immortalized keratinocytes): again revealed pRb degradation; pRb level in E7-expressing keratinocytes (pRb; HPV16 E7-immortalized keratinocytes): completely disappeared; proportion of cells within S-phase ("1321" cells; untreated 31.5%): 18.6%; cells in G1 ("1321" cells; untreated 54.2%): 65.3%; p16^INK4 protein level (p16^INK4): no reduction was discerned; cdk2 kinase activity (histone H1) (cdk2 [1]): inability of cdk2 to phosphorylate histone H1; cdk2 expression (cdk2 [2]; 6 mM sodium butyrate, 16 hours): neither the cyclin-dependent kinase 2 (cdk2) nor cdk4 or cdk6 revealed any significant influence on their expression rates; amount of cdk2, time course (cdk2 [2]; NaB time course): completely unaffected
